Measurements: patent US10632195B2, “Pharmaceutical device for electric-field assisted administration of Tapentadol and method of administering Tapentadol with same” (Gruenenthal GmbH, priority 2012, dated 2020)

Key:
[1] = electrophoretic transdermal delivery from hydrogel formulations in device according to FIG. 1 (examples 2a, 2b, 2c; passive comparative example 2a); type: in vitro ADME, mouse; settings: for total amount of Tapentadol permeated, electrophoretic delivery: after 24 hours, 60 s pulses after 1.5 and 16.5 hours
From the text: The rate of electrophoretic transdermal delivery of three different exemplary Tapentadol hydrochloride containing hydrogel formulations A, B and C has been investigated in example 2a, 2b and 2c. Further, the rate of passive transdermal delivery of a corresponding Tapentadol hydrochloride containing hydrogel formulation has been investigated in a comparative experiment 2a.
(§1) The linearity of the method was verified by calibration with an aqueous solution of Tapentadol hydrochloride.
The hydrogel formulation B has been placed in an electrophoretic transdermal delivery system according to FIG. 1. The following components were used for preparing the electrophoretic device according to FIG. 1:
silver electrodes as pair of electrodes consisting of an active electrode (1a) and a counter electrode (2a) (silver gauze, 1024 mesh/cm^2, 0.12 wire diameter, 99.9% Ag, 18 mm diameter), a foam ring (9) (Alveolit TA 1001 005 White, 95 kg/m^3, 22 mm outer diameter, 16 mm inner diameter), hydrogel formulation B as drug reservoir (3), a teflon ring as barrier material (10) (thickness 1 mm, outer diameter 16 mm, inner diameter 11 mm), silicone adhesive Bio PSA-7 4502 as adhesive layer (4a), which has been in contact with a removable protective layer prior to use (transparent PETP foil manufactured by 3M®, 74 μm, with one-side fluorination, 22 mm diameter), acrylate adhesive DuroTAK 387-2054 as a second adhesive layer (8), a PET foil as surface layer (7) (Loparex PET foil, 75 μm, 105 g/m^2, 22 mm diameter).
Two wires were soldered to the electrodes and connected to a conventional current source as electric power source (6a) (Voltakraft® laboratory power supply DIGI 35).
Transdermal delivery experiments across mouse skin have been performed after two short current pulses (2 V) have been applied for 2 s after 1.5 hour and for 2 s after 16.5 hours.
For comparison, the hydrogel formulation B or A has been placed in an electrophoretic transdermal delivery system according to FIG. 1 and passive transdermal delivery experiments to mouse skin have been performed, i.e. no electric current has been applied to these systems (passive control experiments). This experiment has been performed twice for formulation B (compB-1 and compB-2) and once in case of formulation A (compA) (comparative example 2a) as indicated in FIG. 4 and FIG. 5.
The hydrogel formulation B has been placed in an electrophoretic transdermal delivery system according to FIG. 1 comprising the same components as used for example 2a and comparative example 2a.
Transdermal delivery experiments across mouse skin have been performed after two current pulses have been applied. […]

[2] = combined electrophoretic and iontophoretic transdermal delivery from hydrogel formulation C in device according to FIG. 3 (examples 3a, 3b, 3c); type: in vitro ADME, mouse
From the text: The rate of combined iontophoretic and electrophoretic transdermal delivery of aTapentadol hydrochloride containing hydrogel formulation has been investigated in examples 3a, 3b and 3c.
as §1
The hydrogel formulation C (as described in example 2a) has been placed in a combined electrophoretic and iontophoretic device according to FIG. 3. The following components were used for preparing the inventive electrophoretic and iontophoretic device according to FIG. 3:
silver electrodes as pair of electrodes consisting of an active electrode (1a) and a counter electrode (2a) (silver gauze, 1024 mesh/cm^2, 0.12 wire diameter, 99.9% Ag, 18 mm diameter and 14 mm diameter, respectively), an additional silver ring electrode as an auxiliary electrode (silver gauze, 1024 mesh/cm^2, 0.12 wire diameter, 99.9% Ag, 20 mm outer diameter and 16 mm inner diameter, respectively), a hydrogel formulation (comprising 2.5%-wt. Klucel® HF and 0.1%-wt. sodium chloride, having a pH value of 7.0) as additional reservoir (15) being in contact with the silver ring electrode, a foam ring as (9) (Alveolit TA 1001 005 White, 95 kg/m^3, 24 mm outer diameter, 20 mm inner diameter), hydrogel formulation C as drug reservoir (3), teflon ring as barrier material (10) (thickness 1 mm, outer diameter 16 mm, inner diameter 11 mm and, thickness 0.5 mm, outer diameter 20 mm, inner diameter 16 mm, respectively), silicone adhesive Bio PSA-7 4502 as adhesive layer (4a), which has been in contact with a removable protective layer prior to use (transparent PETP foil manufactured by 3M®, 74 μm, with one-side fluorination, 24 mm diameter), acrylate adhesive DuroTAK 387-2054 as a second adhesive layer (8), a PET foil as surface layer (7) (Loparex PET foil, 75 μm, 105 g/m^2, 24 mm diameter).
Three wires were soldered to the electrodes and connected to a conventional current source as electric power source (6a) (Voltakraft® laboratory power supply DIGI 35).
A transdermal delivery experiment across mouse skin has been performed. In the first electrophoretic phase, only the silver electrodes as pair of electrodes consisting of an active electrode (1a) and a counter electrode (2a) were connected to the current supply. After application of 2.5 hours a single pulse having a pulse length of 60 s at a constant voltage of 3 V has been applied. After application of said pulse both electrodes were disconnected from the voltage generator. In the second iontophoretic phase following the electrophoretic phase, the counter electrode (2a) of the electrophoretically used pair of silver electrodes (1a and 2a) is used as an active electrode (1b) and the additional silver ring electrode is used a counter electrode (2b). A single pulse having a pulse length of 60 s at a constant voltage of 3 V has been applied in the iontophoretic phase.
The hydrogel formulation C (as described in example 2a) has been placed in a combined electrophoretic and iontophoretic device according to FIG. 3. The same components were used for preparing the inventive combined electrophoretic and iontophoretic device as described in example 3a.
Three transdermal delivery experiments (E-1, E2 and E3 as example 3b) to mouse skin have been performed in order to directly assess differences between a solely electrophoretic transdermal delivery and a combined electrophoretic and iontophoretic transdermal delivery as indicated in FIG. 13 and FIG. 14: […]

[3] = HPLC purity of Tapentadol in exhausted hydrogel after electric-field-assisted administration (example 4); type: physicochemical
[4] = preliminary clinical trials: serum concentration and pain treating effect (visual analog scale); type: in vivo, human
From the text: Low serum concentrations of Tapentadol suffice to show an effect in individuals that are relatively sensitive and higher serum concentrations of Tapentadol are needed to show an effect in persons that are relatively unsensitive.

[5] = exhausted hydrogel of F-3 of example 3c, HPLC

CC[C@@H](c1cccc(O)c1)[C@@H](C)CN(C)C [Tapentadol, (−)-(1R,2R)-3-(3-dimethyl-amino-1-ethyl-2-methyl-propyl)-phenol]
total amount of Tapentadol permeated, electrophoretic delivery ([1]; B-5: formulation B, 2 V): more than 300 μg/cm^2 | total amount of Tapentadol permeated, electrophoretic delivery ([1]; C-3: formulation C, 5 V): 670 μg/cm^2 | increase of cumulative skin permeation by electrophoresis versus passive delivery ([1]; hydrogel formulation B, example 2a (2 V pulses of 2 s after 1.5 and 16.5 hours) vs comparative example 2a, from FIG. 4): 5-10 fold | Tapentadol remaining within the transdermal delivery system ([1]; over 24 hours of administration, examples 2a, 2b and 2c): about 90 wt.-% | fall-off of the drug flux ([2]; E-2, after 18 hours compared to the maximum at about 6 hours): about 50% | total amount of Tapentadol permeated, combined electrophoretic and iontophoretic delivery ([2]; after 24 hours, D-1: formulation C, 60 s 3 V electrophoretic pulse after 2.5 hours then 60 s 3 V iontophoretic pulse, mouse skin probably injured): 430 μg/cm^2 | total amount of Tapentadol permeated, electrophoretic delivery ([2]; after 24 hours, E-2: formulation C, four 60 s 3 V electrophoretic pulses (0, 15.75, 18, 20.75 h)): more than 700 μg/cm^2 | total amount of Tapentadol permeated, combined electrophoretic and iontophoretic delivery ([2]; after 24 hours, E-3: formulation C, four 60 s 3 V electrophoretic pulses (0, 15.75, 18, 20.75 h) each followed by 9 V iontophoretic pulse): more than 800 μg/cm^2 | total amount of Tapentadol permeated, combined electrophoretic and iontophoretic delivery ([2]; after 24 hours, F-3: formulation C, four 60 s 4 V electrophoretic pulses (0, 2.5, 5.5, 21.5 h) each followed by 9 V iontophoretic pulse): about 1500 μg/cm^2 | electrically induced degradation of Tapentadol ([3]; during electric-field administration of the device): does not induce a significant degradation | Tapentadol content [3, 5]: 95.3% | sum of impurities [3, 5]: 4.7% | visual analog scale (VAS) in a population mean ([4]; at serum concentration of about 5 ng·ml-1): approximately −2 mm | visual analog scale (VAS) in a population mean ([4]; at serum concentration of about 300 ng·ml-1): approximately −15 mm
